The text below walks through data of patent US20180221463A1, “Modified NK Cells and Uses Thereof” (priority 2017, published 2018).

Data set [1] deals with T1, SMAD3 (Homo sapiens, UniProt P84022).
T1 construct: NK-92 cells were pretreated with SIS3 at various concentrations for 2 hours; endogenous in cells; host or cells: NK-92 (human NK cell line)
The data set is described as follows: Blockade of Smad3 in NK-92 cells under TGF-β1: E4BP4 and IFN-γ levels. It is filed as cell-based. Conditions: high TGF-β1 (5 ng/ml), SIS3 5 μM. The protocol: To reveal the regulatory role of SMAD3 and E4BP4 in the production of IFN-γ in NK-92 cells, a specific inhibitor of SMAD3 known as SIS3 (Sigma) was used in this study. Briefly, NK-92 cells were pretreated with SIS3 at various concentrations for 2 hours. The cells were then treated with TGF-β1 at the final concentration of 5 ng/ml for 45 min and harvested for detection of the phosphorylation level of SMAD3 with western blot. The dosage of SIS3 that induced the maximum effect of phosphorylation inhibition of SMAD3 was determined as the optimal dosage of SIS3 used in further experiment. NK-92 cells were then pretreated with or without SIS3 at the determined concentration for 2 hours followed by stimulation with TGF-β1 at the final concentration of 5 ng/ml for 12 hours. The cells were harvested to detect the level of E4BP4 and IFN-γ.

The subject of data set [2] is SMAD3. As to the kind of experiment: SMAD3 knockdown in NK-92 cells, real-time PCR and western blot. Type of data set: cell-based, human. The protocol:
NK-92 cells were transduced with rLV-hSMAD3 and selected with puromycin (InvivoGen). Briefly, NK-92 cells were seeded in a 24-well plate at a density of 1×10^6/ml and mixed with ploybrene (Santa Cruz) at final concentration of 5 ug/ml and rLV-hSmad3 at MOI (multiplicity of infection) equal to 50 overnight at 37° C. The transduced cells were then expanded in complete medium and selected with puromycin at a final concentration of 2 ug/ml. The expression level of SMAD3 in the puromycin resistant clone was determined by real-time PCR with corresponding primers (Table 2) and Western blot analysis with rabbit anti human SMAD3 antibody (Abcam) respectively.
Total RNA from cells was isolated using the PureLink™ RNA Mini kit (Life Technologies) according to the manufacturer's instruction. The reverse transcription reaction was conducted with C1000 thermal cycler. The cDNA was then diluted with 40 ul RNase-free water and used as the template in real-time polymerase chain reaction.
Background: Real-time PCR tracks product formation cycle by cycle.

T1 sequence (P84022 whole entry): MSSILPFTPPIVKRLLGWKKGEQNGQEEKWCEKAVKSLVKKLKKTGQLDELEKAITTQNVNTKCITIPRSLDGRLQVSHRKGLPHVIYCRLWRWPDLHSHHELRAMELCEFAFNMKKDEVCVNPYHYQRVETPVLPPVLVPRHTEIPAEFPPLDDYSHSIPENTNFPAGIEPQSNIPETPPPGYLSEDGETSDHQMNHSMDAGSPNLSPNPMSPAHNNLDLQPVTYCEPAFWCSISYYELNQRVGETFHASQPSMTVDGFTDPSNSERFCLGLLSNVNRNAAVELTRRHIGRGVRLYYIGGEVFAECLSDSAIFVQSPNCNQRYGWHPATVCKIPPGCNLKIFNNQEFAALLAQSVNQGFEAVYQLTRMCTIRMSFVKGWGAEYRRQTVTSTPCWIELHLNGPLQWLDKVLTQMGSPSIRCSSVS

Turning to `COc1cc2c(cc1OC)CN(C(=O)/C=C/c1c(-c3ccccc3)n(C)c3ncccc13)CC2` [SIS3], at SMAD3 [1], the “expressions of E4BP4 mRNA and protein” value is reported as “markedly increase”; the “production of IFN-γ” value is given as “markedly increase”.

In the case of “shRNA-hSmad3: shRNA specifically against human SMAD3 mRNA, sequence GGAGAAATGGTGCGAGAAG (Table 3), delivered by lentivirus (shRNA hairpin; lentiviral delivery)”, the “mRNA expression of SMAD3” value in the data set with SMAD3 [2] (real-time PCR) is given as “largely down-regulated”. The “decrease in SMAD3 protein” value with SMAD3 [2] (western blot) is “more than 70%”.
